Test results published in patent US11634425B2, “Pharmaceutical compounds” (priority 2019, dated 2023).
pEC50: −log10 of the molar value. Like-named read-outs stand apart in the source and are kept apart here.

Columns and labels:
RSV A2 = assay: RSV plaque reduction assay; type: cell-based, respiratory syncytial virus (RSV); details: human respiratory syncytial virus, HepG2, Hep-G2 cells, mean of at least two experiments
How it was run: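 EC50 is the 50% reduction in immunostained plaque count versus virus-control wells, interpolated from variable-slope 4-parameter fits and averaged over at least two runs. Hep-G2 cells were infected with 100 PFU/well RSV A2 premixed with compound, with the inoculum removed after 2 h. Incubation continued at 37 °C for 2 days under a CMC overlay with compound.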

in vitro = in vitro ADME; details: microsomes, pH 7.4, 1 μM compound, 0.5 mg/mL protein, read-out: Liver Microsomal Stability t1/2
Procedure: Compounds were subjected to the following assays to investigate liver microsomal stability and hepatocyte stability.
Microsomal Incubation: Experimental Procedure
Pooled liver microsomes were purchased from a reputable commercial supplier and stored at −80° C. prior to use. Microsomes (final protein concentration 0.5 mg/mL), 0.1 M phosphate buffer pH 7.4 and test compound (final substrate concentration 1 μM; final DMSO concentration 0.25%) were pre-incubated at 37° C. prior to the addition of NADPH (final concentration 1 mM) to initiate the reaction. The final incubation volume was 50 μL. A control incubation was included for each compound tested where 0.1 M phosphate buffer pH 7.4 was added instead of NADPH (minus NADPH). Two control compounds were included with each species. All incubations were performed singularly for each test compound. Each compound was incubated for 0, 5, 15, 30 and 45 min. The control (minus NADPH) was incubated for 45 min only. The reactions were stopped by transferring incubate into acetonitrile at the appropriate time points, in a 1:3 ratio. The termination plates are centrifuged at 3,000 rpm for 20 min at 4° C. to precipitate the protein. Following protein precipitation, the sample supernatants were combined in cassettes of up to 4 compounds, internal standard added, and samples analysed by LC-MS/MS. From a plot of ln peak area ratio (compound peak area/internal standard peak area) against time, the gradient of the line was determined. Subsequently, half-life (t1/2) and intrinsic clearance (CLint) were calculated.

Cell cytotoxicity (CC50) = type: cell-based; details: human; mean of at least two experiments
How it was run: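 Values are means of ≥2 independent runs, rounded to whole units, from 4-parameter variable-slope curve fits. Toxicity measured in Hep-G2 cells run alongside RSV plaque-reduction assays.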

SMILES | pEC50 (RSV A2) | half-life at 1 μM (in vitro; dog) [h] | half-life at 1 μM (in vitro; human) [h] | half-life at 1 μM (in vitro; rat) [h] | CC50 (Cell cytotoxicity (CC50)) [nM]
CC(C)Nc1ccc(-c2nn3cccnc3c2C(=O)N[C@H]2N=C(c3ccccc3)c3cccc(F)c3NC2=O)cn1 [Example 74, N-[(3S)-9-Fluoro-2-oxo-5-phenyl-1,3-dihydro-1,4-benzodiazepin-3-yl]-2-[6-(propan-2-ylamino)pyridin-3-yl]pyrazolo[1,5-a]pyrimidine-3-carboxamide] | 7.55 | 0.725 | 4.4 | 1.17 | > 25000
O=C(N[C@H]1N=C(c2ccccc2)c2ccccc2NC1=O)c1c(-c2ccccc2F)nn2ccc(N3CCOCC3)nc12 [Example 39, 2-(2-Fluorophenyl)-5-(morpholin-4-yl)-N-[(3S)-2-oxo-5-phenyl-2,3-dihydro-1H-1,4-benzodiazepin-3-yl]pyrazolo[1,5-a]pyrimidine-3-carboxamide] | 7.21 | 0.255 | 1.33 | 0.538 | > 25000
O=C(N[C@H]1N=C(c2ccccc2)c2cccc(F)c2NC1=O)c1c(-c2ccc(N3CCOCC3)nc2)nn2cccnc12 [Example 72, N-[(3S)-9-fluoro-2-oxo-5-phenyl-1,3-dihydro-1,4-benzodiazepin-3-yl]-2-(6-morpholin-4-ylpyridin-3-yl)pyrazolo[1,5-a]pyrimidine-3-carboxamide] | 6.93 | 0.857 | 3 | 2.63 | > 25000
O=C(N[C@H]1N=C(c2ccccc2)c2ccccc2NC1=O)c1c(-c2ccc(F)cc2F)nn2cccnc12 [Example 4, 2-(2,4-difluorophenyl)-N-[(3S)-2-oxo-5-phenyl-1,3-dihydro-1,4-benzodiazepin-3-yl]pyrazolo[1,5-a]pyrimidine-3-carboxamide] | 7.21 | 3.93 | > 2.33 | > 2.33 | > 25000
Cc1ccc2nc(-c3cccnc3)c(C(=O)N[C@H]3N=C(c4ccccc4)c4cccc(F)c4NC3=O)n2n1 [Example 96, N-[(3S)-9-fluoro-2-oxo-5-phenyl-1,3-dihydro-1,4-benzodiazepin-3-yl]-6-methyl-2-pyridin-3-ylimidazo[1,2-b]pyridazine-3-carboxamide] | 7.04 | 3.78 | 42.8 | 0.468 | > 25000
CCc1ccc(-c2nn3cccnc3c2C(=O)N[C@H]2N=C(c3ccccc3)c3ccccc3NC2=O)cn1 [Example 54, 2-(6-Ethylpyridin-3-yl)-N-[(3S)-2-oxo-5-phenyl-1,3-dihydro-1,4-benzodiazepin-3-yl]pyrazolo[1,5-a]pyrimidine-3-carboxamide] | 6.82 | 1.32 | 2.92 | 1.28 | > 25000
O=C(N[C@H]1N=C(c2ccccc2)c2cccc(F)c2NC1=O)c1c(-c2c(F)cccc2F)nn2cccnc12 [Example 44, 2-(2,6-Difluorophenyl)-N-[(3S)-9-fluoro-2-oxo-5-phenyl-1,3-dihydro-1,4-benzodiazepin-3-yl]pyrazolo[1,5-a]pyrimidine-3-carboxamide] | 7.06 | 12.5 | 9.07 | 3.85 | > 25000
Cc1ccnc2c(C(=O)N[C@H]3N=C(c4ccccc4)c4ccccc4NC3=O)c(-c3ccccc3F)nn12 [Example 37, 2-(2-Fluorophenyl)-7-methyl-N-[(3S)-2-oxo-5-phenyl-1,3-dihydro-1,4-benzodiazepin-3-yl]pyrazolo[1,5-a]pyrimidine-3-carboxamide] | 7.41 | 1.95 | > 2.33 | 0.842 | > 25000
Cc1ccc2nc(-c3ccc(F)cn3)c(C(=O)N[C@H]3N=C(c4ccccc4)c4cccc(F)c4NC3=O)n2n1 [Example 78, N-[(3S)-9-fluoro-2-oxo-5-phenyl-1,3-dihydro-1,4-benzodiazepin-3-yl]-2-(5-fluoropyridin-2-yl)-6-methylimidazo[1,2-b]pyridazine-3-carboxamide] | 7.09 | 4.17 | 3.83 | 0.923 | > 25000
COc1ccc2nc(-c3ccccc3)c(C(=O)N[C@H]3N=C(c4ccccc4)c4cccc(F)c4NC3=O)n2n1 [Example 113, N-[(3S)-9-fluoro-2-oxo-5-phenyl-1,3-dihydro-1,4-benzodiazepin-3-yl]-6-methoxy-2-phenylimidazo[1,2-b]pyridazine-3-carboxamide] | 7.39 | 4.02 | 8.63 | 1.46 | > 25000
CNc1ccc(-c2nn3cccnc3c2C(=O)N[C@H]2N=C(c3ccccc3)c3ccccc3NC2=O)cc1 [Example 1, 2-[4-(Methylamino)phenyl]-N-[(3S)-2-oxo-5-phenyl-1,3-dihydro-1,4-benzodiazepin-3-yl]pyrazolo[1,5-a]pyrimidine-3-carboxamide] | 7.46 | 1.25 | 1.22 | 0.678 | > 25000
CC(C)Nc1ccc(-c2nn3cccnc3c2C(=O)N[C@H]2N=C(c3ccccc3)c3cccc(F)c3NC2=O)c(F)n1 [Example 70, N-[(3S)-9-Fluoro-2-oxo-5-phenyl-1,3-dihydro-1,4-benzodiazepin-3-yl]-2-[2-fluoro-6-(propan-2-ylamino)pyridin-3-yl]pyrazolo[1,5-a]pyrimidine-3-carboxamide] | 7.64 | 0.525 | 3.45 | 1.65 | > 25000
O=C(N[C@H]1N=C(c2ccccc2)c2cccc(F)c2NC1=O)c1c(-c2ccccc2)nc2cccnn12 [Example 107, N-[(3S)-9-fluoro-2-oxo-5-phenyl-1,3-dihydro-1,4-benzodiazepin-3-yl]-2-phenylimidazo[1,2-b]pyridazine-3-carboxamide] | 7.43 | 3.12 | 4.97 | 1.46 | > 25000
O=C(N[C@H]1N=C(c2ccccc2)c2cccc(F)c2NC1=O)c1c(-c2ccccc2F)nc2ccc(Cl)nn12 [Example 116, 6-Chloro-N-[(3S)-9-fluoro-2-oxo-5-phenyl-1,3-dihydro-1,4-benzodiazepin-3-yl]-2-(2-fluorophenyl)imidazo[1,2-b]pyridazine-3-carboxamide] | 7.48 | > 2.33 | > 2.33 | 0.957 | > 25000
COc1ccc2nc(-c3cncc(C)c3)c(C(=O)N[C@H]3N=C(c4ccccc4)c4cccc(F)c4NC3=O)n2n1 [Example 118, N-[(3S)-9-fluoro-2-oxo-5-phenyl-1,3-dihydro-1,4-benzodiazepin-3-yl]-6-methoxy-2-(5-methylpyridin-3-yl)imidazo[1,2-b]pyridazine-3-carboxamide] | 7.23 | 2.38 | 1.98 | 0.808 | > 25000
Cc1cnc2c(C(=O)N[C@H]3N=C(c4ccccc4)c4cccc(F)c4NC3=O)c(-c3ccccc3F)nn2c1 [Example 34, N-[(3S)-9-Fluoro-2-oxo-5-phenyl-1,3-dihydro-1,4-benzodiazepin-3-yl]-2-(2-fluorophenyl)-6-methylpyrazolo[1,5-a]pyrimidine-3-carboxamide] | 7.64 | 1.44 | > 2.33 | 1.08 | > 25000
O=C(N[C@H]1N=C(c2ccccc2)c2cccc(F)c2NC1=O)c1c(-c2ccc(C3CC3)nc2)nn2cccnc12 [Example 30, 2-(6-Cyclopropylpyridin-3-yl)-N-[(3S)-9-fluoro-2-oxo-5-phenyl-1,3-dihydro-1,4-benzodiazepin-3-yl]pyrazolo[1,5-a]pyrimidine-3-carboxamide] | 7.21 | 4.88 | 3.02 | 4.43 | > 25000
COc1ccc2nc(-c3ccccc3F)c(C(=O)N[C@H]3N=C(c4ccccc4)c4cccc(F)c4NC3=O)n2n1 [Example 115, N-[(3S)-9-fluoro-2-oxo-5-phenyl-1,3-dihydro-1,4-benzodiazepin-3-yl]-2-(2-fluorophenyl)-6-methoxyimidazo[1,2-b]pyridazine-3-carboxamide] | 7.47 | 7.78 | 2.5 | 2.42 | > 25000
